{"source": "paper PMC7767178", "about": "(International Journal of Molecular Sciences, 2020)", "key": {"E. coli CVCCO157": {"tested_on": "E. coli CVCCO157", "test": "MIC, microtiter broth dilution", "assay_type": "cell-based", "conditions": "37 °C, 16–18 h, three experiments", "description": "(§1) All experiments were repeated three times."}, "A. veronii ACCC61732 [1]": {"tested_on": "A. veronii ACCC61732", "test": "Resistance development, 30 serial passages", "assay_type": "cell-based", "conditions": "A. veronii ACCC61732, 30 passages (30 days)", "protocol": "The development of bacterial resistance of peptides was performed by the MIC assays. […] GEN, CIP, and PMB were used as controls. […] The MIC values were measured as described above. The serial passaging was repeated for 30 days."}, "A. veronii ACCC61732 [2]": {"tested_on": "A. veronii ACCC61732", "test": "Time-killing curves", "assay_type": "cell-based", "conditions": "2× MIC; 1 × 10^5 CFU/mL, colony counting, 0–24 h", "protocol": "Time-killing curves were performed as previously described. […] The sample of 100 μL was taken from each flask at 0, 0.5, 1, 2, 4, 6, 8, 10, 20, and 24 h, respectively, and serially diluted for colony counting. PBS and CIP were used as the negative and positive control, respectively."}, "[3]": {"tested_on": "A. veronii ACCC61732 in biofilm", "assay_type": "cell-based", "conditions": "2 h", "protocol": "The mid-log phase A. veronii ACCC61732 cells (1 × 10^8 CFU/mL) were inoculated into in the 96-well plates and cultured for 24 h at 37 °C. The plates were washed twice with PBS. […] PBS was used as the negative control. The plates were treated with ultrasound for 5 min and the viable bacteria were counted on the TSA plates."}, "A. veronii ACCC61732 [4]": {"tested_on": "A. veronii ACCC61732", "test": "Organ injury in peritonitis model, histology", "assay_type": "in vivo, mice", "conditions": "peptides 5 μmol/kg, CIP 1 μmol/kg", "protocol": "Livers, kidneys, spleens, and lungs were removed from mice at 24 h and five days post treatment to evaluate the organ injury. After washing with PBS, the organs were fixed in 4% paraform-aldehyde for 24 h at 4 °C, dehydrated by a graded series of ethanol (75‒95%), and infiltrated with xylene. The organs were then embedded in paraffin wax, sectioned, and stained with hematoxylin and eosin. Finally, the tissue samples were fixed and observed by the light microscope. The CIP-treated mice served as the positive control and the PBS group served as the negative control."}, "[5]": {"tested_on": "Salmonella typhimurium ATCC14028", "assay_type": "cell-based"}, "A. veronii ACCC61732 [6]": {"tested_on": "A. veronii ACCC61732", "test": "Mouse peritonitis model, bacterial translocation to organs", "assay_type": "in vivo, ICR mice", "conditions": "5 μmol/kg, 24 h post-treatment, colony counting", "protocol": "(§2) Sera and organs (livers, kidneys, spleens, and lungs) were collected from the mice at 24 h post-treatment. The organs were homogenized in sterile PBS to evaluate bacterial translocation by colony counting. The levels of cytokines (TNF-α, IL-1β, IL-6, and IL-10) in sera were detected using the ELISA kits."}, "TNF-α": {"tested_on": "TNF-α", "test": "Serum cytokine, ELISA, peritonitis model", "assay_type": "in vivo", "conditions": "5 μmol/kg, 24 h after treatment, range over mice", "protocol": "as §2"}, "Escherichia coli CVCC195": {"tested_on": "Escherichia coli CVCC195", "test": "microbe, parasite or virus in culture", "assay_type": "cell-based", "conditions": "Escherichia coli CVCC195, broth dilution, 37 °C, 16–18 h, three experiments", "description": "as §1"}, "S. pullorum CVCC1789": {"tested_on": "S. pullorum CVCC1789", "test": "microbe, parasite or virus in culture", "assay_type": "cell-based", "description": "as §1"}, "S. enteritidis CVCC3377": {"tested_on": "S. enteritidis CVCC3377", "test": "microbe, parasite or virus in culture", "assay_type": "cell-based", "description": "as §1"}, "E. coli CVCC25922": {"tested_on": "E. coli CVCC25922", "test": "microbe, parasite or virus in culture", "assay_type": "cell-based", "conditions": "E. coli CVCC25922, broth dilution, 37 °C, 16–18 h, three experiments", "description": "as §1"}, "E. coli CVCC1515": {"tested_on": "E. coli CVCC1515", "test": "microbe, parasite or virus in culture", "assay_type": "cell-based", "description": "as §1"}, "[7]": {"tested_on": "Staphylococcus aureus ATCC43300", "test": "microbe, parasite or virus in culture", "assay_type": "cell-based", "description": "as §1"}, "S. pullorum CVCC533": {"tested_on": "S. pullorum CVCC533", "test": "microbe, parasite or virus in culture", "assay_type": "cell-based", "description": "as §1"}, "S. pullorum CVCC1809": {"tested_on": "S. pullorum CVCC1809", "test": "microbe, parasite or virus in culture", "assay_type": "cell-based", "conditions": "S. pullorum CVCC1809, broth dilution, 37 °C, 16–18 h, three experiments", "description": "as §1"}, "A. veronii X-1-06909": {"tested_on": "A. veronii X-1-06909", "test": "microbe, parasite or virus in culture", "assay_type": "cell-based", "description": "as §1"}, "[8]": {"tested_on": "Candida albicans CMCC98001", "test": "microbe, parasite or virus in culture", "assay_type": "cell-based", "description": "as §1"}, "A. veronii ACCC61732 [9]": {"tested_on": "A. veronii ACCC61732", "test": "Outer membrane permeabilization, NPN assay", "assay_type": "cell-based", "conditions": "NPN fluorescence, 1×–4× MIC", "protocol": "The outer membrane permeabilization abilities of peptides were determined using the fluorescent NPN assay. Mid-log phase A. veronii ACCC61732 was collected by centrifugation, washed twice, and then suspended in N-2-hydroxyethylpiperazine-n-2-ethane sulfonic acid (HEPES) buffer (pH 7.4) to an OD600nm = 0.4. […] Fluorescence intensity was recorded until no further increase with a microplate reader (excitation/emission, 328/438 nm)."}, "A. veronii ATCC35624": {"tested_on": "A. veronii ATCC35624", "assay_type": "cell-based"}, "A. veronii ACCC61732 [10]": {"tested_on": "A. veronii ACCC61732", "test": "Post-antibiotic effect (PAE)", "assay_type": "cell-based", "conditions": "for PAE: 2 h exposure, 1000-fold dilution, 37 °C, triplicate", "protocol": "The samples were taken from flasks for counting each hour until bacterial cultures became turbid. The untreated bacteria severed as controls. The PAE was calculated using the following equation: PAE = T − C, where T is the time (h) required for the CFU in the test culture to increase by 10-fold from the count immediately after the drug removal and C is the corresponding time (h) for the control. The experiment was performed in triplicate."}, "Salmonella": {"tested_on": "Salmonella", "conditions": "range over the strains of Table 2"}}, "note": "Read-outs that look alike come from different tables or passages of the source. Positions of bridges follow the written chain, without caps; N, C: chain ends. Residues, ends and D or L forms follow the SMILES beside them."}
{"smiles": "CC(C)[C@H](N)C(=O)N[C@@H](Cc1ccccc1)C(=O)N[C@@H](C)C(=O)N[C@@H](Cc1c[nH]c2ccccc12)C(=O)N[C@@H](CC(N)=O)C(=O)N[C@H](C(=O)N[C@H]1CSSC[C@@H](C(=O)N[C@@H](Cc2c[nH]cn2)C(=O)N[C@@H](CCCNC(=N)N)C(=O)N[C@@H](CCCNC(=N)N)C(=O)N[C@@H](C)C(=O)N[C@@H](CC(N)=O)C(N)=O)NC(=O)[C@H](C(C)C)NC(=O)[C@H](CCCNC(=N)N)NC(=O)[C@H](C(C)C)NC(=O)[C@H](C(C)C)NC(=O)[C@H](CC(N)=O)NC(=O)[C@H](CCCNC(=N)N)NC(=O)[C@H](Cc2ccc(O)cc2)NC(=O)[C@H](C(C)C)NC1=O)C(C)C", "note": "[V112N6NH2] (H-VFAWNVCVYRNVVRVCHRRAN-NH2; disulfide 7-16 (inferred))", "values": [{"measurement": "MIC", "setting": "E. coli CVCCO157", "result": 8, "unit": "µg/mL"}, {"measurement": "MIC", "setting": "E. coli CVCCO157; read-out: MIC", "result": 3.13, "unit": "µM"}, {"measurement": "increase of MIC after 30 serial passages", "setting": "A. veronii ACCC61732 [1]", "result": "one-fold"}, {"measurement": "time to completely kill A. veronii ACCC61732", "setting": "A. veronii ACCC61732 [2]", "result": "unable completely kill"}, {"measurement": "bacteria in biofilm killed", "setting": "[3]; 8", "result": 46.21, "unit": "%"}, {"measurement": "bacteria in biofilm killed", "setting": "[3]; 16", "result": 52.04, "unit": "%"}, {"measurement": "effect on injury of liver, spleen, kidney and lung", "setting": "A. veronii ACCC61732 [4]", "result": "significantly less damaged"}, {"measurement": "MIC", "setting": "[5]; ATCC14028", "result": 6.25, "unit": "µM"}, {"measurement": "MIC", "setting": "[5]; Salmonella typhimurium ATCC14028, broth dilution, 37 °C, 16–18 h, three experiments", "result": 16, "unit": "µg/mL"}, {"measurement": "reduction of bacteria in kidneys", "setting": "A. veronii ACCC61732 [6]", "result": 63.42, "unit": "%"}, {"measurement": "reduction of bacteria in livers", "setting": "A. veronii ACCC61732 [6]", "result": 52.71, "unit": "%"}, {"measurement": "reduction of bacteria in lungs", "setting": "A. veronii ACCC61732 [6]", "result": 83.57, "unit": "%"}, {"measurement": "reduction of bacteria in spleens", "setting": "A. veronii ACCC61732 [6]", "result": 63.87, "unit": "%"}, {"measurement": "serum level of TNF-α", "setting": "TNF-α", "result": "52.05 to 59.01", "unit": "pg/mL"}, {"measurement": "MIC", "setting": "Escherichia coli CVCC195", "result": 8, "unit": "µg/mL"}, {"measurement": "MIC", "setting": "Escherichia coli CVCC195; read-out: MIC", "result": 3.13, "unit": "µM"}, {"measurement": "MIC", "setting": "S. pullorum CVCC1789; CVCC1789, read-out: MIC", "result": 6.25, "unit": "µM"}, {"measurement": "MIC", "setting": "S. pullorum CVCC1789; S. pullorum CVCC1789, broth dilution, 37 °C, 16–18 h, three experiments", "result": 16, "unit": "µg/mL"}, {"measurement": "MIC", "setting": "S. enteritidis CVCC3377; CVCC3377, read-out: MIC", "result": 0.78, "unit": "µM"}, {"measurement": "MIC", "setting": "S. enteritidis CVCC3377; S. enteritidis CVCC3377, broth dilution, 37 °C, 16–18 h, three experiments", "result": 2, "unit": "µg/mL"}, {"measurement": "MIC", "setting": "E. coli CVCC25922", "result": 8, "unit": "µg/mL"}, {"measurement": "MIC", "setting": "E. coli CVCC25922; read-out: MIC", "result": 3.13, "unit": "µM"}, {"measurement": "MIC", "setting": "E. coli CVCC1515; CVCC1515, read-out: MIC", "result": 1.56, "unit": "µM"}, {"measurement": "MIC", "setting": "E. coli CVCC1515; E. coli CVCC1515, broth dilution, 37 °C, 16–18 h, three experiments", "result": 4, "unit": "µg/mL"}, {"measurement": "MIC", "setting": "[7]; ATCC43300, read-out: MIC", "result": 12.5, "unit": "µM"}, {"measurement": "MIC", "setting": "[7]; Staphylococcus aureus ATCC43300, broth dilution, 37 °C, 16–18 h, three experiments", "result": 32, "unit": "µg/mL"}, {"measurement": "MIC", "setting": "S. pullorum CVCC533; CVCC533, read-out: MIC", "result": 6.25, "unit": "µM"}, {"measurement": "MIC", "setting": "S. pullorum CVCC533; S. pullorum CVCC533, broth dilution, 37 °C, 16–18 h, three experiments", "result": 16, "unit": "µg/mL"}, {"measurement": "MIC", "setting": "S. pullorum CVCC1809", "result": 8, "unit": "µg/mL"}, {"measurement": "MIC", "setting": "S. pullorum CVCC1809; read-out: MIC", "result": 3.13, "unit": "µM"}, {"measurement": "MIC", "setting": "A. veronii X-1-06909; A. veronii X-1-06909, broth dilution, 37 °C, 16–18 h, three experiments", "result": 32, "unit": "µg/mL"}, {"measurement": "MIC", "setting": "A. veronii X-1-06909; read-out: MIC", "result": 12.51, "unit": "µM"}, {"measurement": "MIC", "setting": "[8]; CMCC98001, read-out: MIC", "result": ">50.02", "unit": "µM"}, {"measurement": "MIC", "setting": "[8]; Candida albicans CMCC98001, broth dilution, 37 °C, 16–18 h, three experiments", "result": ">128", "unit": "µg/mL"}, {"measurement": "ability to penetrate the outer membrane", "setting": "A. veronii ACCC61732 [9]", "result": "best ability to penetrate the outer membrane"}, {"measurement": "MIC", "setting": "A. veronii ATCC35624; A. veronii ATCC35624, broth dilution, 37 °C, 16–18 h, three experiments", "result": 16, "unit": "µg/mL"}, {"measurement": "MIC", "setting": "A. veronii ATCC35624; ATCC35624", "result": 6.25, "unit": "µM"}, {"measurement": "PAE", "setting": "A. veronii ACCC61732 [10]; 1× MIC", "result": "0.74 ± 0.02", "unit": "h"}, {"measurement": "PAEs, range over 1×–4× MIC", "setting": "A. veronii ACCC61732 [10]; 1× to 4× MIC", "result": "0.74 to 2.15", "unit": "h"}, {"measurement": "PAE", "setting": "A. veronii ACCC61732 [10]; 2× MIC", "result": "1.48 ± 0.05", "unit": "h"}, {"measurement": "PAE", "setting": "A. veronii ACCC61732 [10]; 4× MIC", "result": "2.15 ± 0.13", "unit": "h"}, {"measurement": "MIC values against Salmonella", "setting": "Salmonella", "result": "0.78 to 6.25", "unit": "µM"}]}
